Each molecule was assayed against T1, human TLR8 (Homo sapiens, UniProt Q9NR97) (assay: HEK293-Blue-hTLR-8 cells assay). Settings: HEK293-Blue-hTLR8 cells, R848 stimulation, 20 hrs, SEAP reporter; read-out: HEK/hTLR8 IC50.
T1 sequence (Q9NR97 27-1041): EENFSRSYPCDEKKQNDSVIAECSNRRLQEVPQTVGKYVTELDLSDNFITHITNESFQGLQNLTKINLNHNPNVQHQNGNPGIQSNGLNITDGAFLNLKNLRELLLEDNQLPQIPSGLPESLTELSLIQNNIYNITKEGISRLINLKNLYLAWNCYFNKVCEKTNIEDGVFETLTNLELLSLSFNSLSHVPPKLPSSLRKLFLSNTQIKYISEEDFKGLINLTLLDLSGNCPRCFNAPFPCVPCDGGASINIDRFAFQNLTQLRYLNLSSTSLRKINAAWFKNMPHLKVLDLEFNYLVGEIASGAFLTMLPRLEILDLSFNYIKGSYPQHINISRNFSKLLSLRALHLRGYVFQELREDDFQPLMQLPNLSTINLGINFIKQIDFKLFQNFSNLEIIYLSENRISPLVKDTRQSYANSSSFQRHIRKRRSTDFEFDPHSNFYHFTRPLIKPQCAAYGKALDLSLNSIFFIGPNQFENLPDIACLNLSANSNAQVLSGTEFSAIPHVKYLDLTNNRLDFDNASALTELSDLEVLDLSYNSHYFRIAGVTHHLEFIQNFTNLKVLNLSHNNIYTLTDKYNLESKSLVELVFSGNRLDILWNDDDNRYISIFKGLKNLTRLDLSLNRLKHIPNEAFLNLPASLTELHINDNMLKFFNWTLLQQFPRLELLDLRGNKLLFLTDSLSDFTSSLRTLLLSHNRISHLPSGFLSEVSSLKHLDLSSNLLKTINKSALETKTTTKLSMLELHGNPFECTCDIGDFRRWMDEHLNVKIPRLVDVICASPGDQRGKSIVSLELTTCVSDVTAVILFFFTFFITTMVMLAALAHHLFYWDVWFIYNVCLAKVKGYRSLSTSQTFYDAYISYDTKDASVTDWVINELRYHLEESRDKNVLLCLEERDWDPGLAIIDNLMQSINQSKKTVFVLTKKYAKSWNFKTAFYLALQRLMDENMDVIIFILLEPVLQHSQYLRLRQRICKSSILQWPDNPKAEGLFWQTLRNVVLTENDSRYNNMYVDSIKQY
Type: cell-based
Text: HEK293-Blue-hTLR-8 Cells Assay:
A stable HEK293-Blue-hTLR-8 cell line was purchased from InvivoGen (Cat. #: hkb-htlr8, San Diego, California, USA). These cells were originally designed for studying the stimulation of human TLR8 by monitoring the activation of NF-κB. A SEAP (secreted embryonic alkaline phosphatase) reporter gene was placed under the control of the IFN-β minimal promoter fused to five NF-κB and AP-1-binding sites. The SEAP was induced by activating NF-κB and AP-1 via stimulating HEK-Blue hTLR8 cells with TLR8 ligands. Therefore the reporter expression was declined by TLR8 antagonist under the stimulation of a ligand, such as R848, for incubation of 20 hrs. The cell culture supernatant SEAP reporter activity was determined using QUANTI-Blue™kit (Cat. #: rep-qb1, Invivogen, San Diego, Ca, USA) at a wavelength of 640 nm, a detection medium that turns purple or blue in the presence of alkaline phosphatase.
HEK293-Blue-hTLR8 cells were incubated at a density of 250,000-450,000 cells/mL in a volume of 170 μL in a 96-well plate in Dulbecco's Modified Eagle's medium (DMEM) containing 4.5 g/L glucose, 50 U/mL penicillin, […], […], 2 mM L-glutamine, 10% (v/v) heat-inactivated fetal bovine serum with addition of 20 μL test compound 1n a serial dilution in the presence of final DMSO at 1% and 10 μL of 60 uM R848 in above DMEM, perform incubation under 37° C. in a CO2 incubator for 20 hrs. Then 20 μL of the supernatant from each well was incubated with 180 μL Quanti-blue substrate solution at 37° C. for 2 hrs and the absorbance was read at 620-655 nm using a spectrophotometer. The signaling pathway that TLR8 activation leads to downstream NF-κB activation has been widely accepted, and therefore similar reporter assay was modified for evaluating TLR8 antagonist.

Row | IC50 | SMILES
1 | 1.4 nM | C[C@@H]1CN(c2ccc(C#N)c3ncccc23)C[C@@H]2c3ccc(N4C[C@H](N)[C@@H](O)C4)cc3CN12 [Example 40A, 5-[(4R,10bS)-8-[(3S,4S)-3-amino-4-hydroxy-pyrrolidin-1-yl]-4-methyl-3,4,6,10b-tetrahydro-1H-pyrazino[2,1-a]isoindol-2-yl]quinoline-8-carbonitrile]
2 | < 3.2 nM | C[C@@H]1CN(c2ccc(C#N)c3ncccc23)C[C@@H]2c3ccc(N4C[C@@H](N)[C@](C)(O)C4)cc3CN12 [Example 45, 5-[(4R,10bS)-4-methyl-8-[trans-(3R,4R)-4-amino-3-hydroxy-3-methyl-pyrrolidin-1-yl]-3,4,6,10b-tetrahydro-1H-pyrazino[2,1-a]isoindol-2-yl]quinoline-8-carbonitrile]
3 | 0.6 nM | C[C@@H]1CN(c2ccc(C#N)c3ncccc23)C[C@@H]2c3ccc(N4C[C@H](N)[C@@H](F)C4)cc3CN12 [Example 49, 5-[(4R,10bS)-8-[(3S,4S)-3-amino-4-fluoro-pyrrolidin-1-yl]-4-methyl-3,4,6,10b-tetrahydro-1H-pyrazino[2,1-a]isoindol-2-yl]quinoline-8-carbonitrile]
4 | < 3.2 nM | C[C@@H]1CN(c2ccc(C#N)c3ncccc23)C[C@@H]2c3ccc(N4CCNC[C@@H](O)C4)cc3CN12 [Example 53B, 5-[(4R,10bS)-8-[(6R)-6-hydroxy-1,4-diazepan-1-yl]-4-methyl-3,4,6,10b-tetrahydro-1H-pyrazino[2,1-a]isoindol-2-yl]quinoline-8-carbonitrile]
5 | < 3.2 nM | C[C@@H]1CN(c2ccc(C#N)c3ncccc23)C[C@@H]2c3ccc(N4CCOC[C@H](N)C4)cc3CN12 [Example 54A, 5-[(4R,10bS)-8-[(6R)-6-amino-1,4-oxazepan-4-yl]-4-methyl-3,4,6,10b-tetrahydro-1H-pyrazino[2,1-a]isoindol-2-yl]quinoline-8-carbonitrile]
6 | < 3.2 nM | C[C@@H]1CN(c2ccc(C#N)c3ncccc23)C[C@@H]2c3ccc(N4CCNCC(C)(O)C4)cc3CN12 (stereo partly drawn) [Example 55, 5-[(4R,10S)-8-(6-hydroxy-6-methyl-1,4-diazepan-1-yl)-4-methyl-3,4,6,10b-tetrahydro-1H-pyrazino[2,1-a]isoindol-2-yl]quinoline-8-carbonitrile]
7 | < 3.2 nM | C[C@@H]1CN(c2ccc(C#N)c3ncccc23)C[C@@H]2c3ccc(N4CCNC[C@](C)(O)C4)cc3CN12 [Example 55A, 5-[(4R,10bS)-8-[(6S)-6-hydroxy-6-methyl-1,4-diazepan-1-yl]-4-methyl-3,4,6,10b-tetrahydro-1H-pyrazino[2,1-a]isoindol-2-yl]quinoline-8-carbonitrile]
8 | < 3.2 nM | C[C@@H]1CN(c2ccc(C#N)c3ncccc23)C[C@@H]2c3ccc(N4CCNC[C@@](C)(O)C4)cc3CN12 [Example 55B, 5-[(4R,10bS)-8-[(6R)-6-hydroxy-6-methyl-1,4-diazepan-1-yl]-4-methyl-3,4,6,10b-tetrahydro-1H-pyrazino[2,1-a]isoindol-2-yl]quinoline-8-carbonitrile]

Further lines, the molecule ahead of its results:

Row | SMILES | IC50
9 | CO[C@@H]1CNC[C@H]1Nc1ccc2c(c1)CN1[C@H](C)CN(c3ccc(C#N)c4ncccc34)C[C@H]21 [Example 34, 5-[(4R,10bS)-8-[[(3R,4R)-4-methoxypyrrolidin-3-yl]amino]-4-methyl-3,4,6,10b-tetrahydro-1H-pyrazino[2,1-a]isoindol-2-yl]quinoline-8-carbonitrile] | < 3.2 nM
10 | C[C@@H]1CN(c2ccc(C#N)c3ncccc23)C[C@@H]2c3ccc(N4C[C@@H](F)[C@@H](N)C4)cc3CN12 [Example 46, 5-[(4R,10bS)-8-[(3S,4R)-3-amino-4-fluoro-pyrrolidin-1-yl]-4-methyl-3,4,6,10b-tetrahydro-1H-pyrazino[2,1-a]isoindol-2-yl]quinoline-8-carbonitrile] | 0.4 nM
11 | C[C@@H]1CN(c2ccc(C#N)c3ncccc23)C[C@@H]2c3ccc(N4C[C@@H](N)[C@@H](F)C4)cc3CN12 [Example 47, 5-[(4R,10bS)-8-[(3R,4S)-3-amino-4-fluoro-pyrrolidin-1-yl]-4-methyl-3,4,6,10b-tetrahydro-1H-pyrazino[2,1-a]isoindol-2-yl]quinoline-8-carbonitrile] | 0.6 nM
12 | C[C@@H]1CN(c2ccc(C#N)c3ncccc23)C[C@@H]2c3ccc(N4C[C@@H](N)[C@H](F)C4)cc3CN12 [Example 48, 5-[(4R,10bS)-8-[(3R,4R)-3-amino-4-fluoro-pyrrolidin-1-yl]-4-methyl-3,4,6,10b-tetrahydro-1H-pyrazino[2,1-a]isoindol-2-yl]quinoline-8-carbonitrile] | 0.7 nM
13 | C[C@@H]1CN(c2ccc(C#N)c3ncccc23)C[C@@H]2c3ccc(N4CCC(C)(N)CC4)cc3CN12 [Example 51, 5-[(4R,10bS)-8-(4-amino-4-methyl-1-piperidyl)-4-methyl-3,4,6,10b-tetrahydro-1H-pyrazino[2,1-a]isoindol-2-yl]quinoline-8-carbonitrile] | < 0.3 nM
14 | C[C@@H]1CN(c2ccc(C#N)c3ncccc23)C[C@@H]2c3ccc(N4CCOC5CNCC54)cc3CN12 (stereo partly drawn) [Example 52, 5-[(4R,10bS)-8-(3,4a,5,6,7,7a-hexahydro-2H-pyrrolo[3,4-b][1,4]oxazin-4-yl)-4-methyl-3,4,6,10b-tetrahydro-1H-pyrazino[2,1-a]isoindol-2-yl]quinoline-8-carbonitrile] | < 3.2 nM
15 | [2H]c1ccc2c(N3C[C@@H](C)N4Cc5cc(N[C@H]6CNC[C@H]6F)ccc5[C@H]4C3)ccc(C#N)c2n1 [Example 91, 5-[(4R,10bS)-8-[[(3S,4R)-4-fluoropyrrolidin-3-yl]amino]-4-methyl-3,4,6,10b-tetrahydro-1H-pyrazino[2,1-a]isoindol-2-yl]-2-deuterio-quinoline-8-carbonitrile] | 0.6 nM
16 | [2H]c1ccc2c(N3C[C@@H](C)N4Cc5cc(N6CC(C)(N)C6)ccc5[C@H]4C3)ccc(C#N)c2n1 [Example 92, 5-[(4R,10bS)-8-(3-amino-3-methyl-azetidin-1-yl)-4-methyl-3,4,6,10b-tetrahydro-1H-pyrazino[2,1-a]isoindol-2-yl]-2-deuterio-quinoline-8-carbonitrile] | < 0.3 nM
17 | [2H]c1ccc2c(N3C[C@@H](C)N4Cc5cc(N6CC7CNCC(C6)O7)ccc5[C@H]4C3)ccc(C#N)c2n1 [Example 93, 5-[(4R,10bS)-4-methyl-8-(9-oxa-3,7-diazabicyclo[3.3.1]nonan-3-yl)-3,4,6,10b-tetrahydro-1H-pyrazino[2,1-a]isoindol-2-yl]-2-deuterio-quinoline-8-carbonitrile] | 2.1 nM
18 | CO[C@H]1CN(c2ccc3c(c2)CN2[C@H](C)CN(c4ccc(C#N)n5nccc45)C[C@H]32)C[C@@H]1N [Example 95, 4-[(4R,10bS)-8-[(3S,4S)-3-amino-4-methoxy-pyrrolidin-1-yl]-4-methyl-3,4,6,10b-tetrahydro-1H-pyrazino[2,1-a]isoindol-2-yl]pyrazolo[1,5-a]pyridine-7-carbonitrile] | 4.6 nM
19 | C[C@@H]1CN(c2ccc(C#N)n3nccc23)C[C@@H]2c3ccc(N4CC[C@@H](N)C4)cc3CN12 [Example 96, 4-[(4R,10bS)-8-[(3R)-3-aminopyrrolidin-1-yl]-4-methyl-3,4,6,10b-tetrahydro-1H-pyrazino[2,1-a]isoindol-2-yl]pyrazolo[1,5-a]pyridine-7-carbonitrile] | 4 nM

— patent publication US12157746B2, “Tetrahydro-1H-pyrazino[2,1-a]isoindolylquinoline compounds for the treatment of autoimmune disease” (F. HOFFMANN-LA ROCHE AG, priority 2018, dated 2024)
